According to patent US20250230138A1, “COMPOUNDS HAVING A T-STRUCTURE FORMED BY AT LEAST FOUR CYCLES FOR USE IN THE TREATMENT OF CANCER AND OTHER INDICATIONS” (TheRas, Inc., priority 2022, published 2025):
Where two headings read alike, the source gives them in different places.

What was measured:
[1] = target: Cys242 in human PIK3CA (157-299) (Homo sapiens (Human), UniProt P42336); experiment: Covalent modification assay using MALDI-TOF MS; format: biochemical; settings: 4 h reaction time point
Cys242 in human PIK3CA (157-299), sequence (P42336 157-299): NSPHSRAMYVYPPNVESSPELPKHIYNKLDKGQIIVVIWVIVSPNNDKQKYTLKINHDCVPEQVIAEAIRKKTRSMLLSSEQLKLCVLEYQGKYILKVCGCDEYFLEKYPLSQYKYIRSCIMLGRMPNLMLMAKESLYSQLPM
In short: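 PIK3CA (157-299), 3.33 or 1 μM in 20 mM HEPES, 150 mM NaCl, 2 mM MgCl2, pH 7.3, was incubated with compound at room temperature in the dark for 15 min, 30 min, 2 h or 4 h. Linear MALDI-TOF read-out; % modification = adduct peak height over summed heights of all protein species.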

pAKT in BT474 cells = experiment: Cell-based pAKT HTRF assay in BT474 cells; settings: BT474 cells, 4 hr incubation, read-out: pAKT inhibition IC50 in BT474 cells
In short: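 Compound titration: 3 μM downward in 3-fold steps, nine points, 4 hr on cells. Detection: lysis, then d2 plus Eu Cryptate antibody mix, room-temperature incubation of 4–24 h, and time-resolved fluorescence read at 615 nm.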

[2] = 3.33 μM protein target, 1:7.5 protein to compound ratio (compounds 1-852)
[3] = Homo sapiens, BT-474, Compounds 10-999
[4] = 1 μM protein target, 1:5 protein to compound ratio (compounds 853-1279)

Structure (SMILES) | % of modification [1, 2] | IC50 (pAKT in BT474 cells; Compounds 10-999) | % of modification [1, 4] | IC50 (pAKT in BT474 cells; Compounds 1000-1279) | also measured
C=CC(=O)N1Cc2cc(-c3nc(-c4cnn(C)c4)c4ccsc4c3-c3c(F)cc(F)cc3OC[C@@H](C)O)nn2[C@@H](C)C1 [Compound 581] | D (percent of modification <25%) | 100 to 1000 nM |  |  | 
C=CC(=O)N1CCc2nc(-c3nc(-c4ccc5c(c4)CCN(C)C5)c4ccsc4c3-c3c(F)cc(F)cc3OCC)sc2C1 [Compound 438] | A (percent of modification of PIK3CA protein ≥75%) | 100 to 1000 nM |  |  | 
C=CC(=O)N1Cc2cc(-c3nc(-c4cnnc(C)c4)c4ccsc4c3-c3c(F)cc(F)cc3OCCO)nn2CC1C (stereo not drawn) [Compound 829] | A (percent of modification of PIK3CA protein ≥75%) | < 100 nM |  |  | 
C=CC(=O)N1Cc2cc(-c3nc(-c4ccc5nn(C)cc5c4)c4ccsc4c3-c3c(F)cc(F)cc3OCCO)nn2CC1C (stereo not drawn) [Compound 832] | A (percent of modification of PIK3CA protein ≥75%) | < 100 nM |  |  | 
C=CC(=O)N1CCc2nc(-c3nc(-c4cnn(C)c4)c4ccsc4c3-c3ccc(F)cc3OCC3CCNC(=O)C3)sc2C1 (stereo not drawn) [Compound 144, 4-[[5-fluoro-2-[4-(1-methylpyrazol-4-yl)-6-(5-prop-2-enoyl-6,7-dihydro-4H-thiazolo[5,4-c]pyridin-2-yl)thieno[3,2-c]pyridin-7-yl]phenoxy]methyl]piperidin-2-one] | A (percent of modification of PIK3CA protein ≥75%) |  |  |  | IC50 (pAKT in BT474 cells; [3]): < 100 nM
C=CC(=O)N1CCn2nc(-c3nc(-c4ccc(CC(=O)N(C)C)cc4)c4ccsc4c3-c3c(F)cc(F)cc3OCCOC)cc2C1C (stereo not drawn) [Compound 1090] |  |  | A (percent of modification of PIK3CA protein ≥75%) | < 100 nM | 
C=CC(=O)N1CCn2nc(-c3nc(-c4cnc5c(cnn5C)c4)c4ccsc4c3-c3c(F)cc(F)cc3OC[C@@H](C)O)cc2[C@H]1C [Compound 893] |  | < 100 nM | A (percent of modification of PIK3CA protein ≥75%) |  | 
C=CC(=O)N1Cc2cc(-c3nc(-c4ccc5c(c4)CCN(C)C5)c4ccsc4c3-c3c(F)cc(F)cc3OC[C@@H](C)O)nn2C[C@H]1C [Compound 605] | A (percent of modification of PIK3CA protein ≥75%) | < 100 nM |  |  | 
C=CC(=O)N1CCn2nc(-c3nc(-c4ccc5c(c4)CNC(=O)C5)c4ccsc4c3-c3c(F)cc(F)cc3OCC(C)(C)O)cc2C1C (stereo not drawn) [Compound 1139] |  |  | A (percent of modification of PIK3CA protein ≥75%) | < 100 nM | 
C=CC(=O)N1CCn2nc(-c3nc(-c4ccc5c(c4)NC(=O)CN(C)C5)c4ccsc4c3-c3c(F)cc(F)cc3OCCOC)cc2[C@H]1C [Compound 1132, 8-((S)-6-((R)-5-acryloyl-4-methyl-4,5,6,7-tetrahydropyrazolo[1,5-a]pyrazin-2-yl)-7-(2,4-difluoro-6-(2-methoxyethoxy)phenyl)thieno[3,2-c]pyridin-4-yl)-4-methyl-1,3,4,5-tetrahydro-2H-benzo[e][1,4]diazepin-2-one] |  |  | A (percent of modification of PIK3CA protein ≥75%) | < 100 nM | 
C=CC(=O)N1CCc2ccc(-c3nc(-c4cccc(OCCN(C)C)c4)c4ccsc4c3-c3c(F)cc(F)cc3OCCOC)cc2C1 [Compound 1184] |  |  | A (percent of modification of PIK3CA protein ≥75%) | 100 to 1000 nM | 
C=CC(=O)N1CCn2nc(-c3nc(-c4cnn([C@@H](CO)CF)c4)c4ccsc4c3-c3ccc(F)cc3OCCOC)cc2C1 [Compound 280] | A (percent of modification of PIK3CA protein ≥75%) | < 100 nM |  |  | 
C=CC(=O)N1CCC(n2cc(-c3nc(-c4ccc5c(c4)CCNC5)c4ccsc4c3-c3ccc(F)cc3C#N)cn2)CC1 [Compound 93] | C (25%≤percent of modification <50%) | > 3000 nM |  |  | 
C=CC(=O)N1CCn2nc(-c3nc(-c4cnc5c(c4)CNC5=O)c4ccsc4c3-c3c(F)cc(F)cc3OCCO)cc2C1C (stereo not drawn) [Compound 961] |  | 100 to 1000 nM | A (percent of modification of PIK3CA protein ≥75%) |  | 
C=CC(=O)N1CCn2nc(-c3nc(-c4ccc5c(cnn5C)c4)c4ccsc4c3-c3c(F)cc(F)cc3OC)cc2C1C (stereo not drawn) [Compound 1115] |  |  | A (percent of modification of PIK3CA protein ≥75%) | < 100 nM | 
C=CC(=O)N1CCn2nc(-c3nc(-c4ccc5c(c4)CN(C)CC54CC4)c4ccsc4c3-c3c(F)cc(F)cc3OCCO)cc2C1C (stereo not drawn) [Compound 1114] |  |  | A (percent of modification of PIK3CA protein ≥75%) | < 100 nM | 
C=CC(=O)N1CCn2nc(-c3nc(-c4cnc5c(c4)CN(C(C)C)CC5)c4ccsc4c3-c3c(F)cc(F)cc3OCCOC)cc2C1C (stereo not drawn) [Compound 1093] |  |  | A (percent of modification of PIK3CA protein ≥75%) | < 100 nM | 

Structure (SMILES) | % of modification [1, 2] | IC50 (pAKT in BT474 cells; Compounds 10-999) | % of modification [1, 4] | IC50 (pAKT in BT474 cells; Compounds 1000-1279) | also measured
C=CC(=O)N1Cc2cc(-c3nc(-c4ccc5c(c4)CNC5=O)c4ccsc4c3-c3c(F)cc(F)cc3OC[C@@H](C)O)nn2C[C@H]1C [Compound 756] | A (percent of modification of PIK3CA protein ≥75%) | < 100 nM |  |  | 
C=CC(=O)N1CCn2nc(-c3nc(-c4ccnc(N)c4)c4ccsc4c3-c3ccc(F)cc3OCC3CCNC(=O)C3)cc2C1 (stereo not drawn) [Compound 249] | A (percent of modification of PIK3CA protein ≥75%) | < 100 nM |  |  | 
C=CC(=O)N1Cc2cc(-c3nc(-c4cnn(C)c4)c4ccsc4c3-c3c(F)cc(F)cc3OCCOC)nn2CC1C (stereo not drawn) [Compound 469] | A (percent of modification of PIK3CA protein ≥75%) | < 100 nM |  |  | 
C=CC(=O)N1CCn2nc(-c3nc(-c4cc5cnn(C)c5cc4F)c4ccsc4c3-c3c(F)cc(F)cc3OCCO)cc2[C@H]1C [Compound 1162] |  |  | A (percent of modification of PIK3CA protein ≥75%) | < 100 nM | 
C=CC(=O)N1CC(n2cc(-c3nc(-c4ccc5c(c4)CCNC5)c4ccsc4c3-c3ccc(F)cc3OCCOC)ccc2=O)C1 [Compound 157] | A (percent of modification of PIK3CA protein ≥75%) | < 100 nM |  |  | 
C=C(F)C(=O)N1CCn2nc(-c3nc(-c4ccc(=O)[nH]c4)c4ccsc4c3-c3ccc(F)cc3OC(C)C)cc2C1 [Compound 307] | A (percent of modification of PIK3CA protein ≥75%) | 100 to 1000 nM |  |  | 
C=CC(=O)N1Cc2cc(-c3nc(C45CC(C(=O)NC)(C4)C5)c4ccsc4c3-c3c(F)cc(F)cc3OCCOC)nn2C[C@H]1C [Compound 1071, 3-((S)-6-((R)-5-acryloyl-6-methyl-4,5,6,7-tetrahydropyrazolo[1,5-a]pyrazin-2-yl)-7-(2,4-difluoro-6-(2-methoxyethoxy)phenyl)thieno[3,2-c]pyridin-4-yl)-N-methylbicyclo[1.1.1]pentane-1-carboxamide] |  |  | B (50%<percent of modification <75%) |  | IC50 (pAKT in BT474 cells; Homo sapiens, BT-474, Compounds 1000-1279): < 100 nM
C=CC(=O)N1CC(n2cc(-c3nc(-c4ncn(C)n4)c4ccsc4c3-c3ccc(F)cc3OCCOC)cn2)C1 [Compound 85] | A (percent of modification of PIK3CA protein ≥75%) | 100 to 1000 nM |  |  | 
C=CC(=O)N1CCn2nc(-c3nc(-c4ccc5c(c4)CCN(C)CC5)c4c(c3-c3c(F)cc(F)cc3OCCOC)CCC4)cc2[C@H]1C [Compound 1223] |  |  | A (percent of modification of PIK3CA protein ≥75%) | < 100 nM | 
C=CC(=O)N1CCn2nc(-c3nc(-c4ccc(C(=O)N5CC(F)C(F)C5)cc4)c4ccsc4c3-c3c(F)cc(F)cc3OCCOC)cc2C1C (stereo not drawn) [Compound 1189] |  |  | A (percent of modification of PIK3CA protein ≥75%) | < 100 nM | 
C=CC(=O)N1Cc2cc(-c3nc(-n4ccccc4=O)c4ccsc4c3-c3c(F)cc(F)cc3OCCOC)nn2C[C@H]1C [Compound 964, 1-[7-[2,4-difluoro-6-(2-methoxyethoxy)phenyl]-6-[(6R)-6-methyl-5-prop-2-enoyl-6,7-dihydro-4H-pyrazolo[1,5-a]pyrazin-2-1]thieno[3,2-c]pyridin-4-yl]pyridin-2-one] |  |  | A (percent of modification of PIK3CA protein ≥75%) |  | IC50 (pAKT in BT474 cells; [3]): < 100 nM
C=CC(=O)N1CC[C@H](n2cc(-c3nc(-c4ccc5c(c4)CCNC5)c4ccsc4c3-c3ccc(F)cc3OCCOC)ccc2=O)[C@H]1C [Compound 188] | A (percent of modification of PIK3CA protein ≥75%) | 100 to 1000 nM |  |  | 
C=CC(=O)N1CCn2nc(-c3nc(-c4ccc5c(c4)C(=O)NC5)c4ccsc4c3-c3c(F)cc(F)cc3OCC(C)(C)O)cc2[C@H]1C [Compound 1130] |  |  | A (percent of modification of PIK3CA protein ≥75%) | < 100 nM | 
C=C(F)C(=O)N1CCn2nc(-c3nc(-c4ccc5c(c4)CNC5=O)c4ccsc4c3-c3c(F)cc(F)cc3OCC(F)F)cc2C1 [Compound 353] | B (50%<percent of modification <75%) | 100 to 1000 nM |  |  | 
C=CC(=O)N1Cc2cc(-c3nc(-c4cnc5cn(C)nc5c4)c4ccsc4c3-c3c(F)cc(F)cc3OCCOC)nn2C[C@H]1C [Compound 818] | A (percent of modification of PIK3CA protein ≥75%) | < 100 nM |  |  | 
C=CC(=O)N1CCn2nc(-c3nc(-c4cnc5c(c4)CN(CCO)CC5)c4ccsc4c3-c3c(F)cc(F)cc3OCCOC)cc2[C@H]1C [Compound 1160] |  |  | A (percent of modification of PIK3CA protein ≥75%) | < 100 nM | 
